Assays:
Format in all cases: in vivo
[1] = tested on: brown planthopper (Nilaparvata lugens); test: Nilaparvata lugens spray test; conditions: 96 h
Experimental: Nilaparvata lugens—Spray Test
(§1) • Solvent: 78.0 parts by weight of acetone • 1.5 parts by weight of dimethylformamide • Emulsifier: alkylarylpolyglycol ether
(§2) To produce a suitable preparation of active compound, 1 part by weight of active compound is mixed with the stated amount of solvents and is diluted with water, containing an emulsifier concentration of 1000 ppm, to the desired concentration. Further test concentrations are prepared by dilution with emulsifier containing water.
Rice plants (Oryza sativa) are sprayed with a preparation of the active ingredient of the desired concentration and the plants are infested with the brown planthopper (Nilaparvata lugens).
After 4 days mortality in % is determined. 100% means all planthoppers have been killed and 0% means none of the planthoppers have been killed.

[2] = tested on: larvae of the southern green stink bug (Nezara viridula); test: whole plant or invertebrate; conditions: 96 h
Experimental: Nezara viridula—Spray Test
as §1
as §2, with “solvent,” for “solvents”, “and the concentrate” for “and”
Barley plants (Hordeum vulgare) are sprayed with a test solution containing the desired concentration of the active ingredient and are infested with larvae of the southern green stink bug (Nezara viridula).
After 4 days mortality in % is determined. 100% means all the stink bugs have been killed; 0% means none of the stink bugs have been killed.

[3] = tested on: fall armyworm larvae (Spodoptera frugiperda); test: whole plant or invertebrate; conditions: 168 h
Experimental: Spodoptera frugiperda—Spray Test
(§3) • Solvent: 78.0 parts by weight acetone • 1.5 parts by weight dimethylformamide • Emulsifier: alkylarylpolyglycol ether
as §2
Maize (Zea mays) leaf sections are sprayed with a preparation of the active ingredient of the desired concentration. Once dry, the leaf sections are infested with fall armyworm larvae (Spodoptera frugiperda).
After 7 days mortality in % is determined. 100% means all caterpillars have been killed and 0% means none of the caterpillars have been killed.
Spodoptera frugiperda—Spray Test (SPODFR)
After the specified period of time, mortality in % is determined. 100% means all caterpillars have been killed and 0% means none of the caterpillars have been killed.

[4] = tested on: green peach aphid (Myzus persicae); test: Myzus persicae spray test (MYZUPE); conditions: 120 h; for mortality at 100 g/ha: after 5 days
Experimental: Myzus persicae—Spray Test
• Solvent: 78.0 parts by weight acetone • 1.5 parts by weight dimethylformamide • Emulsifier: alkylarylpoly glycol ether
as §2
Chinese cabbage (Brassica pekinensis) leaf disks infected with all instars of the green peach aphid (Myzus persicae), are sprayed with a preparation of the active ingredient of the desired concentration.
After 5 days mortality in % is determined. 100% means all aphids have been killed and 0% means none of the aphids have been killed.
Myzus persicae—Spray Test (MYZUPE)
as §3
After the specified period of time, mortality in % is determined. 100% means all aphids have been killed and 0% means none of the aphids have been killed.

[5] = tested on: larvae of the banded cucumber beetle (Diabrotica balteata); test: Diabrotica balteata spray test; conditions: 168 h, 100 g/ha (=32 μg/well), after 7 days, read-out: efficacy (seedling growth)
Experimental: Diabrotica balteata—Spray Test
as §1
as §2, with “solvent,” for “solvents”, “and the concentrate” for “and”
Soaked wheat seeds (Triticum aestivum) are placed in a multiple well plate filled with agar and some water and are incubated for 1 day to germinate (5 seeds per well). The germinated wheat seeds are sprayed with a test solution containing the desired concentration of the active ingredient. Afterwards each unit is infected with 10-20 larvae of the banded cucumber beetle (Diabrotica balteata).
After 7 days efficacy in % is determined. 100% means all the seedlings have grown up like in the untreated, uninfected control; 0% means none of the seedlings have grown.

Question: How did the mortality at 500 g/ha [1] turn out when Cc1nc([C@H](C)NC(=O)c2cc(OC(F)(F)F)cc(S(C)(=O)=O)c2)n(-c2cc(C(N)=O)ncn2)n1 [I-32] was run?
Answer: 90%

Question: And the mortality at 100 g/ha [2]?
Answer: 90%

Question: What about the mortality at 500 g/ha [2] of the same compound?
Answer: 100%

Question: What about the mortality at 100 g/ha [3] of the same compound?
Answer: 100%

Question: What about the mortality at 100 g/ha [4] of the same compound?
Answer: 90%

Question: What does the source list for C[C@H](NC(=O)c1cc(C#N)cc(C#N)c1)c1ncnn1-c1cc(C(N)=O)ncn1 [I-126]?
Answer: mortality at 500 g/ha [1]: 100%; mortality at 100 g/ha [2]: 100%; mortality at 500 g/ha [2]: 100%

Question: For Cc1nc([C@H](C)NC(=O)c2cc(S(=O)(=O)C(F)(F)F)cc(S(=O)(=O)C(F)(F)F)c2)n(-c2cc(C#N)ncn2)n1 [I-29], which mortality at 500 g/ha [1] is on record?
Answer: 100%

Question: And the mortality at 100 g/ha [3]?
Answer: 100%

Question: What about the pest or weed control at 32 µg/disc, 100 g/ha [5] of the same compound?
Answer: 100%

Question: Which mortality at 500 g/ha [1] does the source give for Cc1nc([C@H](C)NC(=O)c2cc(C#N)cc(C#N)c2)n(-c2cc(C(N)=O)ncn2)n1 [I-128] here?
Answer: 100%

Question: What about the mortality at 100 g/ha [2] of the same compound?
Answer: 100%

Question: What about the mortality at 500 g/ha [2] of the same compound?
Answer: 100%

Question: What about the pest or weed control at 32 µg/disc, 100 g/ha [5] of the same compound?
Answer: 100%

Question: With CNC(=O)c1cc(-n2ncnc2[C@H](C)NC(=O)c2cc(C(F)F)cc(C(F)F)c2)ncn1 [I-134] as the compound, how does the mortality at 500 g/ha [1] read?
Answer: 100%

Question: And the mortality at 100 g/ha [3]?
Answer: 100%

Question: And the mortality at 100 g/ha [4]?
Answer: 90%

Question: And the pest or weed control at 32 µg/disc, 100 g/ha [5]?
Answer: 100%

Question: Cc1nc([C@H](C)NC(=O)c2cc(C(F)(F)F)cc(S(C)(=O)=O)c2)n(-c2cc(C#N)ncn2)n1 [I-23] was tested. Which mortality at 500 g/ha [1] did it give?
Answer: 100%

Question: And the mortality at 500 g/ha [2]?
Answer: 100%

Question: What about the pest or weed control at 32 µg/disc, 100 g/ha [5] of the same compound?
Answer: 100%

Question: What does the source list for CNC(=O)c1cc(-n2ncnc2[C@H](C)NC(=O)c2cc(Br)cc(OC(F)(F)C(F)F)c2)ncn1 [I-122]?
Answer: mortality at 500 g/ha [1]: 100%; mortality at 500 g/ha [2]: 100%; mortality at 100 g/ha [3]: 100%; pest or weed control at 32 µg/disc, 100 g/ha [5]: 100%

Question: What does the source list for C[C@H](NC(=O)c1cc(C(F)F)cc(C(F)F)c1)c1ncnn1-c1cc(C(N)=O)ncn1 [I-133]?
Answer: mortality at 500 g/ha [1]: 100%; mortality at 100 g/ha [3]: 100%; mortality at 100 g/ha [4]: 100%; pest or weed control at 32 µg/disc, 100 g/ha [5]: 100%

Question: How did the mortality at 500 g/ha [1] turn out when C[C@H](NC(=O)c1cccc(F)c1)c1ncnn1-c1cc(C(N)=O)ncn1 [I-44] was run?
Answer: 100%

Question: What about the mortality at 100 g/ha [2] of the same compound?
Answer: 100%

Question: And the mortality at 500 g/ha [2]?
Answer: 100%

Question: What about the pest or weed control at 32 µg/disc, 100 g/ha [5] of the same compound?
Answer: 100%

Question: Which mortality at 500 g/ha [1] does the source give for C[C@H](NC(=O)c1cc(OC(F)(F)F)cc(S(C)(=O)=O)c1)c1nc(C2CC2)nn1-c1cc(C(=O)N(C)C)ncn1 [I-154] here?
Answer: 100%

Question: And the mortality at 500 g/ha [2]?
Answer: 100%

Question: What about the mortality at 100 g/ha [3] of the same compound?
Answer: 100%

Question: What about the mortality at 100 g/ha [4] of the same compound?
Answer: 90%

Question: What does the source list for Cc1nc([C@H](C)NC(=O)c2cc(C(F)(F)F)cc(C(F)(F)F)c2)n(-c2cc(C(=O)N(C)C)ncn2)n1 [I-130]?
Answer: mortality at 500 g/ha [1]: 100%; mortality at 500 g/ha [2]: 100%; mortality at 100 g/ha [3]: 100%; pest or weed control at 32 µg/disc, 100 g/ha [5]: 100%

Question: With Cc1nc([C@H](C)NC(=O)c2cc(Br)cc(Br)c2)n(-c2cc(C(N)=O)ncn2)n1 [I-71] as the compound, how does the mortality at 500 g/ha [2] read?
Answer: 90%

Question: And the mortality at 100 g/ha [3]?
Answer: 100%

Question: What about the mortality at 100 g/ha [4] of the same compound?
Answer: 90%

Question: And the pest or weed control at 32 µg/disc, 100 g/ha [5]?
Answer: 100%

Question: Which mortality at 500 g/ha [2] does the source give for C[C@H](NC(=O)c1cc(Cl)cc(S(=O)(=O)C(F)(F)F)c1)c1ncnn1-c1cc(C(N)=O)ncn1 [I-84] here?
Answer: 100%

Question: And the mortality at 100 g/ha [3]?
Answer: 100%

Question: And the Emax at 20 g/ha ([3]; SPODFR, 20 g ai/ha, 7 dat (Table 4), read-out: % Efficacy)?
Answer: 100%

Question: And the Emax at 100 g/ha ([3]; SPODFR, 100 g ai/ha, 7 dat (Table 4), read-out: % Efficacy)?
Answer: 100%

Question: And the mortality at 100 g/ha [4]?
Answer: 90%

Question: And the Emax at 4 g/ha ([4]; MYZUPE, 4 g ai/ha, 5 dat (Table 4), read-out: % Efficacy)?
Answer: 90%

Question: What about the Emax at 20 g/ha ([4]; MYZUPE, 20 g ai/ha, 5 dat (Table 4), read-out: % Efficacy) of the same compound?
Answer: 100%

Question: And the Emax at 100 g/ha ([4]; MYZUPE, 100 g ai/ha, 5 dat (Table 4), read-out: % Efficacy)?
Answer: 90%

Question: What about the pest or weed control at 32 µg/disc, 100 g/ha [5] of the same compound?
Answer: 100%

Question: For Cc1nc([C@H](C)NC(=O)c2cc(Cl)cc(S(C)(=O)=O)c2)n(-c2cc(C(N)=O)ncn2)n1 [I-61], which mortality at 500 g/ha [1] is on record?
Answer: 90%

Question: And the mortality at 500 g/ha [2]?
Answer: 100%

Question: With C[C@H](NC(=O)c1cc(Br)cc(C#N)c1)c1ncnn1-c1cc(C(N)=O)ncn1 [I-124] as the compound, how does the mortality at 100 g/ha [2] read?
Answer: 100%

Question: What about the mortality at 500 g/ha [2] of the same compound?
Answer: 100%

Question: And the mortality at 100 g/ha [3]?
Answer: 100%

Question: And the mortality at 100 g/ha [4]?
Answer: 90%

Question: What about the pest or weed control at 32 µg/disc, 100 g/ha [5] of the same compound?
Answer: 100%

Question: With CC(C)N(C)C(=O)c1nccc(-n2ncnc2[C@H](C)NC(=O)c2cc(OC(F)(F)F)cc(OC(F)(F)F)c2)n1 [I-115] as the compound, how does the mortality at 500 g/ha [1] read?
Answer: 90%

Question: And the mortality at 100 g/ha [3]?
Answer: 100%

Question: And the mortality at 100 g/ha [4]?
Answer: 90%

Question: What about the pest or weed control at 32 µg/disc, 100 g/ha [5] of the same compound?
Answer: 80%
